# In patent US20250134891A1, “USE OF SOS1 INHIBITORS WITH MTOR INHIBITORS TO TREAT CANCERS” (Revolution Medicines, Inc., priority 2021, published 2025):
# How the values were obtained:
# [1] = tested on: LN229 human glioblastoma PTPN11^A72S/WT; assay: Tumor growth in vivo, LN229 PTPN11^A72S/WT glioblastoma CDX model; conditions: single agent; 3 mg/kg IP weekly; athymic nude mice
# Method: The combinatorial effects of Compound SOS1-(C) with RM-006 (also known as RMC-6272) on tumor cell growth in a human model of PTPN11-mutant glioblastoma, LN229 PTPN11^A72S/WT. 6-7 week athymic nude mice were implanted with LN229 in 50% matrigel (10×10^6 cells/mouse) subcutaneously in the flank. Once tumors reached an average size of 200 mm^3, mice were randomized into treatment groups (n=10/group) to start the administration of test articles or control. SOS1-(C) treatment was administered daily by oral gavage and RM-006 was administered weekly by intra-peritoneal injection. Body weight and tumor volume (using calipers) was measured twice weekly until study endpoint.
# [2] = tested on: murine pancreatic ductal adenocarcinoma PAN02 PTPN11^G503V; assay: Tumor growth in vivo, PAN02 PTPN11^G503V syngeneic model; design: species or system mouse; conditions: single agent
# Method: The combinatorial effects of Compound SOS1-(C) with RM-006 (also known as RMC-6272) on tumor cell growth in vivo were evaluated in the murine pancreatic ductal adenocarcinoma PAN02 PTPN11^G503V syngeneic model using female C57BL/6J mice (6-7 weeks old). Mice were implanted with PAN02 tumor cells in PBS (5×10^6 cells/mouse) subcutaneously in the flank. Once tumors reached an average size of ˜145 mm^3, mice were randomized to treatment groups to start the administration of test articles or control. SOS1-(C) treatment was administered daily by oral gavage and RM-006 was administered weekly by intra-peritoneal injection. Body weight and tumor volumes (using calipers) were measured twice weekly until study endpoint. Regressions (R) are defined as decrease of 10% or more from initial tumor volume.
compound,measurement,setting,value
CO[C@H]1C[C@@H]2CC[C@@H](C)[C@@](O)(O2)C(=O)C(=O)N2CCCC[C@H]2C(=O)O[C@H]([C@H](C)C[C@@H]2CC[C@@H](OC(=O)NCCOCCOCCOCCOCCOCCOCCOCCOCCC(=O)NCCS(=O)(=O)c3ccc(C(=O)N4CCOc5ccc(-c6ccc(N)nc6)cc5C4)c(C)c3F)[C@H](OC)C2)C[C@@H](O)[C@H](C)/C=C(\C)[C@@H](O)[C@@H](OC)C(=O)[C@H](C)C[C@H](C)/C=C/C=CC=C1C [RM-006],tumor growth inhibition (TGI),[1],72%
same,tumor growth inhibition (TGI),"[2]; 3 mg/kg IP weekly, female C57BL/6J mice",11%
same,regressions (decrease of 10% or more from initial tumor volume),[2]; any timepoint in this study,did not induce regressions
